Measurements as given in paper PMC12238850, “Molecular determinants for recognition of serotonylated chromatin” (Nucleic Acids Research, 2025).
Substitutions are numbered along the chain they refer to. Read-outs that look alike come from different tables or passages of the source.

What was measured:
Assay type in all cases: binding
[1] = biological target: T1, TAF3 P881E W894F (GST-tagged PHD) (Mus musculus, UniProt Q5HZG4, P881E/W894F); assay: ITC of GST-tagged Taf3-PHD P881E W894F
T1 construct: Mus musculus Taf3-PHD domain (residues 857–924); made in house; host or cells: E. coli BL21(DE3)
T1 sequence (Q5HZG4 857-924 P881E/W894F): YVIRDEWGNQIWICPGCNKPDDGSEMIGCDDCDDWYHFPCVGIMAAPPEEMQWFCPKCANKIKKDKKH
Source text: (§1) The coding sequences of Mus musculus Taf3-PHD domain (residues 857–924) and Homosapiens PHF2 (1–66), PHF8 (37–102), and BPTF(2) (2865–2921) were cloned into the pGEX2T-derived vector, pRP265NB, for bacterial expression of GST-tagged proteins. Note that the PHD fingers of M. musculus Taf3 and H. sapiens TAF3 differ in a single amino acid. A901 in mouse corresponds to T899 in human. Here, amino acid numbering corresponds to mouse Taf3 isoform 1 with UniProt ID: Q5HZG4, accessible at https://www.uniprot.org/uniprotkb/Q5HZG4/entry. Single or double mutations were introduced by mutagenesis polymerase chain reaction and validated by Sanger sequencing. A single colony of freshly transformed BL21(DE3) Escherichia coli bacteria with the corresponding construct was grown in Luria broth (LB) medium supplemented with 50 μg/ml ampicillin until an OD600 of 0.7. […]
(§2) ITC experiments were performed at 20°C with a MicroCal VP-ITC microcalorimeter (Malvern) by sequential injection of 10 μl at 300 μM histone peptide during 20 s into the sample cell containing 30 or 15 μM of GST-Taf3 (wild type or mutant) or GST-BPTF, GST-PHF2, and GST-PHF8 PHDs in ITC buffer (100 mM NaCl, 20 mM Tris–HCl, pH 7.5). […] ITC data were subsequently analysed and fitted with the one-site binding model in the MicroCal ITC Origin Analysis software 7.0 (Table 1, Figs 3B and 5A, Supplementary Table S3, and Supplementary Fig. S10). […]

[2] = biological target: T2, TAF3 A902L (GST-tagged PHD) (Mus musculus, UniProt Q5HZG4, A902L); assay: ITC of GST-tagged Taf3-PHD A902L
T2 construct: Mus musculus Taf3-PHD domain (residues 857–924); made in house; host or cells: E. coli BL21(DE3)
T2 sequence (Q5HZG4 857-924 A902L): T1 sequence (Q5HZG4 857-924 P881E/W894F) with E25P, F38W, A46L
Source text: as §1, §2

[3] = biological target: T3, TAF3 W894F (GST-tagged PHD) (Mus musculus, UniProt Q5HZG4, W894F); assay: ITC of GST-tagged Taf3-PHD W894F
T3 construct: Mus musculus Taf3-PHD domain (residues 857–924); made in house; host or cells: E. coli BL21(DE3)
T3 sequence (Q5HZG4 857-924 W894F): T1 sequence (Q5HZG4 857-924 P881E/W894F) with E25P
Source text: as §1, §2

[4] = biological target: T4, TAF3 P881E (GST-tagged PHD) (Mus musculus, UniProt Q5HZG4, P881E); assay: ITC of GST-tagged Taf3-PHD P881E
T4 construct: Mus musculus Taf3-PHD domain (residues 857–924); made in house; host or cells: E. coli BL21(DE3)
T4 sequence (Q5HZG4 857-924 P881E): T1 sequence (Q5HZG4 857-924 P881E/W894F) with F38W
Source text: as §1, §2

[5] = biological target: T5, TAF3 S880A (GST-tagged PHD) (Mus musculus, UniProt Q5HZG4, S880A); assay: ITC of GST-tagged Taf3-PHD S880A
T5 construct: Mus musculus Taf3-PHD domain (residues 857–924); made in house; host or cells: E. coli BL21(DE3)
T5 sequence (Q5HZG4 857-924 S880A): T1 sequence (Q5HZG4 857-924 P881E/W894F) with S24A, E25P, F38W
Source text: as §1, §2

[6] = biological target: T6, PHF8 PHD (37–102, GST-tagged) (Homo sapiens, UniProt Q9UPP1); assay: ITC of GST-tagged PHF8 PHD
T6 construct: PHF8 (37–102); made in house; host or cells: E. coli BL21(DE3)
T6 sequence (Q9UPP1 37-102): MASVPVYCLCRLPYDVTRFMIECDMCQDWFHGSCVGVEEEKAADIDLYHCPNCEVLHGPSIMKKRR
Source text: as §1, §2

[7] = biological target: T7, TAF3 P881F (GST-tagged PHD) (Mus musculus, UniProt Q5HZG4, P881F); assay: ITC of GST-tagged Taf3-PHD P881F
T7 construct: Mus musculus Taf3-PHD domain (residues 857–924); made in house; host or cells: E. coli BL21(DE3)
T7 sequence (Q5HZG4 857-924 P881F): T1 sequence (Q5HZG4 857-924 P881E/W894F) with E25F, F38W
Source text: as §1, §2

[8] = ITC, 20°C, 100 mM NaCl, 20 mM Tris–HCl, pH 7.5, one-site model, ± = standard error of fit, read-out: K D

Row | Kd [1, 8] [nM] | Kd [2, 8] [nM] | Kd [3, 8] [nM] | Kd [4, 8] [nM] | Kd [5, 8] [nM] | Kd [6, 8] [nM] | Kd [7, 8] [nM] | Structure (SMILES) | Kd [1] [nM] | Kd [2] [nM] | Kd [3] [nM] | Kd [4] [nM] | Kd [5] [nM] | Kd [6] [nM] | Kd [7] [nM]
1 |  |  |  |  |  |  |  | C[C@H](N)C(=O)N[C@@H](CCCNC(=N)N)C(=O)N[C@H](C(=O)N[C@@H](CCCC[N+](C)(C)C)C(=O)N[C@@H](CCC(=O)NCCc1c[nH]c2ccc(O)cc12)C(=O)N[C@H](C(=O)N[C@@H](C)C(=O)N[C@@H](CCCNC(=N)N)C(=O)N[C@@H](CCCCN)C(=O)N[C@@H](CO)C(=O)N[C@H](C(=O)NCC(N)=O)[C@@H](C)O)[C@@H](C)O)[C@@H](C)O [H3K4me3Q5ser] | 111 ± 14 | 51 ± 3 | 102 ± 1 | 136 ± 4 | 65 ± 5 | 275 ± 19 | 124 ± 7
2 | 123 ± 10 | 166 ± 17 | 126 ± 12 | 148 ± 4 | 207 ± 34 | 418 ± 20 | 130 ± 4 | C[C@H](N)C(=O)N[C@@H](CCCNC(=N)N)C(=O)N[C@H](C(=O)N[C@@H](CCCC[N+](C)(C)C)C(=O)N[C@@H](CCC(N)=O)C(=O)N[C@H](C(=O)N[C@@H](C)C(=O)N[C@@H](CCCNC(=N)N)C(=O)N[C@@H](CCCCN)C(=O)N[C@@H](CO)C(=O)N[C@H](C(=O)NCC(N)=O)[C@@H](C)O)[C@@H](C)O)[C@@H](C)O [H3K4me3] |  |  |  |  |  |  | 
